Measurements as given in publication PMC9965590, “Development of Computational In Silico Model for Nano Lipid Carrier Formulation of Curcumin” (Molecules, 2023).

Tests used:
[1] = In vitro drug release (dialysis bag, phosphate buffer pH 6.8, 37 °C); assay type: physicochemical
Protocol: The in vitro drug release research was conducted at 37 °C for 24 h in a phosphate buffer (pH 6.8).
The dialysis bag’s molecular weight threshold of 12–14 KDa was used to determine the in vitro drug release from the formulations [35, 82]. […] Regularly, new dissolution medium samples were taken from the dissolution medium and replaced. A volumetric flask filled with 10 Ml of methanol was treated with 1 mL of the filtrate after it was filtered through Whatman filter paper No. 1. As needed, additional dilutions were made. A spectrophotometric technique was used to analyze the materials. Calculations were made with the Korsmeyer and Peppas model and the PCP Disso Version 2.08 programmed [83, 84, 85, 86, 87, 88] to determine the time needed for 50 and 85% drug release, respectively.

[2] = Actual solubility of curcumin in lipids (laboratory experiment); assay type: physicochemical
From the text: Table 2 Predicted versus actual results of curcumin solubility in different lipids. | column: Actual Solubility (mg/g)

[3] = In vitro gut permeation study; assay type: in vitro ADME; conditions: after 8 h
Protocol: The experimental protocol was approved by the Institutional Animal Ethical Committee (IAEC) with approval number CPCSEA/IAEC/JLS/16/9/21/13. Experiments on a fasted Wistar rat’s (weighing 250–300 g) small intestine were conducted in a laboratory setting. An intestinal segment was removed from a dead rat after euthanasia using CO2 inhalation and it was cut into lengths of 6–7 cm. […] In a beaker heated to 37 °C, the sac was submerged in an oxygenated Krebs Ringer solution (20 mL). The sink was maintained by removing and replacing aliquots of 1 mL every 0.5, 1, 1.5, 2, and 8 h with an equivalent volume of warm Krebs Ringer solution heated to 37 °C. Each aliquot’s medication concentration was measured using HPLC (n = 3). The HPLC system is equipped through a Shimadzu LC-10AD VP pump, a C18 Agilent column (Inertsil, 150 mm × 4.66 mm, […]), and a flow rate of 1 mL/min; the mobile phase has been degassed. It is made up of an acetonitrile, water, and methanol (50:10:40) ratio. The detector wavelength was set at 425 nm. The injection volume was 10 µL. The samples were measured after diluting suitably with methanol. Each formulation’s flow and permeability coefficients were calculated.
Papp(cm/sec)=(DQ/dt)(AxCO)

time to dissolve 50% of the curcumin [1]: more than 24 h | Actual Solubility ([2]; in liquid lipid Castor oil): 3.52 ± 0.52 mg/g | Actual Solubility ([2]; in liquid lipid Corn oil): 1.06 ± 0.15 mg/g | Actual Solubility ([2]; in liquid lipid Grape seeds oil): 0.59 ± 0.64 mg/g | Actual Solubility ([2]; in liquid lipid Oleic acid): 4.61 ± 0.13 mg/g | Actual Solubility ([2]; in liquid lipid Olive oil): 3.48 ± 0.34 mg/g | Actual Solubility ([2]; in liquid lipid Soybean oil): 1.36 ± 0.26 mg/g | Actual Solubility ([2]; in solid lipid Cetosteryl): 2.06 ± 0.13 mg/g | Actual Solubility ([2]; in solid lipid GMS): 3.58 ± 0.03 mg/g | Actual Solubility ([2]; in solid lipid Palmitic acid): 3.28 ± 0.06 mg/g | Actual Solubility ([2]; in solid lipid Stearic acid): 2.62 ± 0.12 mg/g | Actual Solubility ([2]; in solid lipid Tri Palmitin): 3.25 ± 0.30 mg/g | Papp at 8 h ([3]; Wistar, rat gut, mucosal to serosal): 4.88 ×10⁻⁶ cm/s | permeability through the rat gut [3]: 6.83 ± 1.53 mcg/cm^2/h | permeability and penetration release rate in the intestine and the gut ([3]; as printed in Conclusions): 6.83 ± 1.53 mg/cm^2/h
Structure (SMILES): COc1cc(/C=C/C(=O)CC(=O)/C=C/c2ccc(O)c(OC)c2)ccc1O [curcumin, Curcumin]
